Legend:
[1] = target: JNK; conditions: read-out: KD (μM) JNK; docking motif peptide binding to JNK; cited from earlier work
[2] = target: ERK; conditions: read-out: KD (μM) ERK; docking motif peptide binding to ERK; cited from earlier work
[3] = target: p38; conditions: read-out: KD (μM) p38; docking motif peptide binding to p38; cited from earlier work
[4] = target: JNK1 (Homo sapiens, UniProt P45983); assay: Recombinant kinase assay, kinetic parameters of sensor phosphorylation; type: biochemical
Sequence of JNK1 (P45983 whole entry): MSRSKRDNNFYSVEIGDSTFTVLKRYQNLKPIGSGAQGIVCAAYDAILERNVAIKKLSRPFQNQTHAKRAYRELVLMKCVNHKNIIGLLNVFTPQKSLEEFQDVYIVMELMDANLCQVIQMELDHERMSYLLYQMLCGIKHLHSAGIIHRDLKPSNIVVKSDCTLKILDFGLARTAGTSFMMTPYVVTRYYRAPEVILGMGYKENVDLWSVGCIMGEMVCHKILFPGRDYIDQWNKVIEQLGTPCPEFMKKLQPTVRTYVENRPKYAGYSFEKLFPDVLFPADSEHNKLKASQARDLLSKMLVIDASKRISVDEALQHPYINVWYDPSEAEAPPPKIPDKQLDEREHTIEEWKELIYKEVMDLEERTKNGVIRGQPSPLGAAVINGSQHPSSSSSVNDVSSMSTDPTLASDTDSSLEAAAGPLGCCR

[5] = system: off target kinases; assay: Kinase panel selectivity screen, JNK sensor, off target kinases; type: biochemical; conditions: 15 nM kinase, sensor at 2 × KM (3 μM), other MAP and non-MAP kinases
[6] = target: JNK2 (Homo sapiens, UniProt P45984); assay: Recombinant kinase assay, kinetic parameters of sensor phosphorylation; type: biochemical
[7] = target: JNK3 (Homo sapiens, UniProt P53779); assay: as above; type: biochemical
Sequence of JNK3 (P53779 whole entry): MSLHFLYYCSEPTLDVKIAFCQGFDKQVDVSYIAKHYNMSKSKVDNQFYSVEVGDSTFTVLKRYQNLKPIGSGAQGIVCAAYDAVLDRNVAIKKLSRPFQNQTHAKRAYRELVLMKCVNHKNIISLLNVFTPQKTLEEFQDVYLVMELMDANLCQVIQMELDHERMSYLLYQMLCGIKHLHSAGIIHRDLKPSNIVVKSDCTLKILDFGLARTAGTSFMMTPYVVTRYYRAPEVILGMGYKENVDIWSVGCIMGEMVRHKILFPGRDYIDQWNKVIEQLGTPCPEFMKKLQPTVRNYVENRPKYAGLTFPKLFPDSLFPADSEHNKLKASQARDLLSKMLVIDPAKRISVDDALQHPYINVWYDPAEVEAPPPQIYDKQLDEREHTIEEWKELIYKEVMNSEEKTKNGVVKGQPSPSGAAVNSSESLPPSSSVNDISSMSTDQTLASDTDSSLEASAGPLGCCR

[8] = target: T1, p38α (Homo sapiens, UniProt Q16539); assay: as above; type: biochemical
T1 sequence (Q16539 whole entry): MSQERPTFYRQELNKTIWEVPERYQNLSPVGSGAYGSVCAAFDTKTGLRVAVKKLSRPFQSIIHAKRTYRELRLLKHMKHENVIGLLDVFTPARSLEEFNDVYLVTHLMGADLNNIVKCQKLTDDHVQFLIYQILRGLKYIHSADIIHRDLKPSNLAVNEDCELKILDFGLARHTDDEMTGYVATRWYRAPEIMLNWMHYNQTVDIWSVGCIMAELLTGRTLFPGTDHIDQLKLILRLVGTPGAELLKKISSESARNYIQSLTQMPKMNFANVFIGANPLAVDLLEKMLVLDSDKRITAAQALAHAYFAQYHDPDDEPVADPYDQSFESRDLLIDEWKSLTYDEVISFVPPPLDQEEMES

[9] = target: T2, p38β (Homo sapiens, UniProt Q15759); assay: as above; type: biochemical
T2 sequence (Q15759 whole entry): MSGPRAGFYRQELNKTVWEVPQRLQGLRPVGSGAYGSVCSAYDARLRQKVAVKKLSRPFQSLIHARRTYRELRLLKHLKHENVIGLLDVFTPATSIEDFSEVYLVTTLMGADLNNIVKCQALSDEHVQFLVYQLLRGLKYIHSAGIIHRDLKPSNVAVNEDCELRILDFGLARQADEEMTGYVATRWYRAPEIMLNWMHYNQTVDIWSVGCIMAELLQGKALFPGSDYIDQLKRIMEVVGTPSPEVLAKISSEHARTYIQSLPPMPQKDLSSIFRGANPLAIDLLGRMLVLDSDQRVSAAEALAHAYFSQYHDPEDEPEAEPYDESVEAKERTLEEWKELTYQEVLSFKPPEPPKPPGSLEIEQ

[10] = target: ERK1 (Homo sapiens, UniProt P27361); assay: as above; type: biochemical
Sequence of ERK1 (P27361 whole entry): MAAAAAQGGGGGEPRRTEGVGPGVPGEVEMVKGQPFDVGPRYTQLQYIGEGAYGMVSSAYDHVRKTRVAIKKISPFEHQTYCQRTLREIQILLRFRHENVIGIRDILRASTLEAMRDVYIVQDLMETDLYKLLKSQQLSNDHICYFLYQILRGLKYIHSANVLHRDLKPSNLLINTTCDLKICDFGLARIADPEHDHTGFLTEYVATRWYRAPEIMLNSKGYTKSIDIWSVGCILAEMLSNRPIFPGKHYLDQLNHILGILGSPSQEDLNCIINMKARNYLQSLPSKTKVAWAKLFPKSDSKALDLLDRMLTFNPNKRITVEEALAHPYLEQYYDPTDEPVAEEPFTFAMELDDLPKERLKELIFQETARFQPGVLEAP

[11] = target: T2, p38β; assay: Kinase panel selectivity screen, ERK sensor crosstalk with p38β; type: biochemical; conditions: 15 nM kinase, sensor at 2 × KM (2.5 μM)
[12] = target: ERK2 (Homo sapiens, UniProt P28482); assay: Recombinant kinase assay, kinetic parameters of sensor phosphorylation; type: biochemical
Sequence of ERK2 (P28482 whole entry): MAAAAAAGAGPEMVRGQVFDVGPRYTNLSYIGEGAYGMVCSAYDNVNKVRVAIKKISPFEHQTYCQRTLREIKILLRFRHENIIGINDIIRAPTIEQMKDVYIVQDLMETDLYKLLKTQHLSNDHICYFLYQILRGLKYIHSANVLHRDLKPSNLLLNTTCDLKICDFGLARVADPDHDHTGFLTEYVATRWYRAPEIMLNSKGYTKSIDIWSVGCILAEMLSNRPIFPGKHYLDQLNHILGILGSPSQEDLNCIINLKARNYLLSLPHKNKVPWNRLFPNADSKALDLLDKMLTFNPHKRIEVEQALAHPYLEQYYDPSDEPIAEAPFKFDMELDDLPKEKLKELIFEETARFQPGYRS

[13] = target: T1, p38α; assay: Kinase panel selectivity screen, ERK sensor crosstalk with p38α; type: biochemical; conditions: 15 nM kinase, sensor at 2 × KM (2.5 μM)
[14] = recombinant JNK1, 1 mM ATP, pH 7.4, 30 °C, Sox fluorescence
[15] = recombinant JNK2, 1 mM ATP, pH 7.4, 30 °C, Sox fluorescence
[16] = recombinant JNK3, 1 mM ATP, pH 7.4, 30 °C, Sox fluorescence
[17] = 1 mM ATP, pH 7.4, 30 °C, Sox fluorescence
[18] = recombinant ERK1, 1 mM ATP, pH 7.4, 30 °C, Sox fluorescence
[19] = recombinant ERK2, 1 mM ATP, pH 7.4, 30 °C, Sox fluorescence

ERPSRDHLYLPLEP [NFAT4]
Kd [1]: 7.1 µM
Kd [2]: > 100 µM
Kd [3]: > 100 µM

ERPSRDHLYLPLEP-PEG2-SANLLSP-Csox-PA [JNK1/2/3]
catalytic efficiency (min^–1 μM^–1) ([4]; recombinant JNK1): 5.4 min^–1 μM^–1
Vmax (μmol min^–1 mg^–1) [4, 14]: 0.38 ± 0.05 μmol min^–1 mg^–1
kcat (min^–1) [4, 14]: 17.9 ± 2.2 min^–1
activity observed for any of the off target kinases (percentage of the target kinase) [5]: ≤ 12.5%
catalytic efficiency (min^–1 μM^–1) ([6]; recombinant JNK2): 19.2 min^–1 μM^–1
Vmax (μmol min^–1 mg^–1) [6, 15]: 0.37 ± 0.02 μmol min^–1 mg^–1
kcat (min^–1) [6, 15]: 18.2 ± 1.3 min^–1
catalytic efficiency (min^–1 μM^–1) ([7]; recombinant JNK3): 9.4 min^–1 μM^–1
Vmax (μmol min^–1 mg^–1) [7, 16]: 0.35 ± 0.07 μmol min^–1 mg^–1
kcat (min^–1) [7, 16]: 26.6 ± 5.6 min^–1

GKKRRKLLLPNSADEIKKIKI-PEG2-Triazole-PEG2-QP-Csox-ASPVV [p38α/β]
catalytic efficiency (min^–1 μM^–1) [8]: 298.7 min^–1 μM^–1
Vmax (μmol min^–1 mg^–1) [8, 17]: 1.37 ± 0.08 μmol min^–1 mg^–1
kcat (min^–1) [8, 17]: 92.6 ± 5.4 min^–1
catalytic efficiency (min^–1 μM^–1) [9]: 282.9 min^–1 μM^–1
Vmax (μmol min^–1 mg^–1) [9, 17]: 0.84 ± 0.13 μmol min^–1 mg^–1
kcat (min^–1) [9, 17]: 39.6 ± 6.3 min^–1

GLKRVRRQALISSEIPKLQP-PEG2-Triazole-PEG2-VP-Csox-LTPGGRR [ERK1/2]
catalytic efficiency (min^–1 μM^–1) ([10]; recombinant ERK1): 26.2 min^–1 μM^–1
Vmax (μmol min^–1 mg^–1) [10, 18]: 0.42 ± 0.03 μmol min^–1 mg^–1
kcat (min^–1) [10, 18]: 29.9 ± 2.0 min^–1
crosstalk with p38β (percentage of the target kinase) [11]: 17%
catalytic efficiency (min^–1 μM^–1) ([12]; recombinant ERK2): 54.6 min^–1 μM^–1
Vmax (μmol min^–1 mg^–1) [12, 19]: 0.90 ± 0.01 μmol min^–1 mg^–1
kcat (min^–1) [12, 19]: 62.8 ± 0.7 min^–1
crosstalk with p38α (percentage of the target kinase) [13]: 10%

IKIKKIEDASNPLLLKRRKK [MK2]
Kd [1]: > 100 µM
Kd [2]: 19.5 µM
Kd [3]: 0.05 µM

PQLKPIESSILAQRRVRKL [RSK1]
Kd [1]: > 100 µM

Reference: PMC4165445 (Biochemistry, 2014)
